Values of other authors, collected in patent US11975015B2, “Methods for treating degenerative disc disease and chronic lower back pain” (ECM Biologics, Inc., priority 2017, dated 2024).

Tested on: chronic low back pain (CLBP)
Conditions: amoxicillin 500 mg-clavulanic acid 125 mg three times a day for 100 days; Albert 2013, Palazzo 2017

amoxicillin-clavulanic acid
treatment outcome in CLBP patients: mixed results
